From patent US8178553B2, “Compounds for the treatment of inflammatory disorders” (Schering Corporation, priority 2006, dated 2012) come the findings set out here.

The first assay deals with T1, purified catalytic domain of recombinant human TACE (rhTACEc) (Homo sapiens, UniProt P78536, N452Q/S266A).
T1 construct: rhTACEc, Residue 215 to 477 with two mutation (S266A and N452Q) and a 6xHis tail; 6xHis (C); made in house; host or cells: baculovirus/Hi5 insect cells
T1 sequence (P78536 215-477 S266A/N452Q): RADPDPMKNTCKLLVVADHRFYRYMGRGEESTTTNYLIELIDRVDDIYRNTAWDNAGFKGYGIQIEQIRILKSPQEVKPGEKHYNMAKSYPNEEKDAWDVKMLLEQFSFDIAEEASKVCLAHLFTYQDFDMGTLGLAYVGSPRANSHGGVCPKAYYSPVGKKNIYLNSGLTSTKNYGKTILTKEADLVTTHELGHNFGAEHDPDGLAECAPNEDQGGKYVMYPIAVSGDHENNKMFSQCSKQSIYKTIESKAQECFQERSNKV
Description: TACE kinetic assay, cleavage of internally quenched fluorescent peptide substrate SPDL-3. The format is biochemical. Conditions: Specific TACE inhibitory activity of representative compounds; read-out: Ki. The protocol: TACE activity is determined by a kinetic assay measuring the rate of increase in fluorescent intensity generated by TACE catalyzed cleavage of an internally quenched peptide substrate (SPDL-3). […] It is purified from the baculovirus/Hi5 cells expression system using affinity chromatography. […] MCA is (7-Methoxycoumarin-4-yl)acetyl. Dpa is N-3-(2,4-Dinitrophenyl)-L-2,3-diaminopropionyl.
A 50 μl assay mixture contains 20 mM HEPES, pH 7.3, 5 mM CaCl2, 100 µM ZnCl2, 2% DMSO, 0.04% Methylcellulose, 30 μM SPDL-3, 70 pM rhTACEc and a test compound. RhTACEc is pre-incubated with the testing compound for 90 min. at 25° C. Reaction is started by addition of the substrate. […] Rate of enzymatic reaction is shown as Units per second. Effect of a test compound is shown as % of TACE activity in the absence of the compound.
As usually defined, the Ki is a dissociation constant, usually derived from enzyme kinetics or from competition with a known ligand. For the compound `CNC(=O)c1ccc(Oc2ccc([C@]3(CN4Cc5ccc(OC)cc5C4=O)NC(=O)NC3=O)cc2)cc1` [Compound 84], the Ki came to 4 nM.

The same assay, now with this note: TACE inhibition, Table 1; read-out: Ki Rating.
For `COc1ccc2c(c1)C(=O)N(C[C@@]1(/C(Cc3c[nH]c(=O)c(C)c3)=N/O)NC(=O)NC1=O)C2` [Compound 48], the inhibition constant (Ki) was in the range of 10 to 100 nM.

For `COc1ccc2c(c1)C(=O)N(C[C@@]1(c3ccc(-c4cc(C(N)=O)cc(C)n4)cc3)NC(=O)NC1=O)C2` [Compound 67], the Ki is < 10 nM.

For the compound `COc1ccc2c(c1)C(=O)N(C[C@@]1(c3ccc(C#Cc4ccccn4)cc3)NC(=O)NC1=O)C2` [Compound 22], the Ki is < 10 nM.

Take `COc1ccc2c(c1)C(=O)N(C[C@@]1(c3ccc(Oc4cccc(C(=O)NCCN(C)C)c4)cc3)NC(=O)NC1=O)C2` [Compound 90]: the Ki is < 10 nM.

With `CNC(=O)c1ccc(Oc2ccc([C@]3(CN4Cc5ccc(OC)cc5C4=O)NC(=O)NC3=O)cc2)cc1` [Compound 84], the Ki is < 10 nM.

With `COc1ccc2c(c1)C(=O)N(C[C@@]1(c3ccc(C#N)cc3)NC(=O)NC1=O)C2` [Compound 101], the inhibition constant Ki is < 10 nM.

Take `O=C1NC(=O)C(CN2Cc3c[nH]c(=O)cc3C2=O)(c2ccc(F)cc2)N1` (centres unmarked) [Compound 29]: the Ki was 10 to 100 nM.

In the case of `COc1ccc2c(c1)C(=O)N(C[C@@]1(c3ccc(Oc4ccc(C(=O)N5CCOCC5)cc4)cc3)NC(=O)NC1=O)C2` [Compound 82], the inhibition constant (Ki) is < 10 nM.

Regarding `COC(=O)c1ccc([C@@]2(CN3Cc4ccc(OC)cc4C3=O)NC(=O)NC2=O)cc1` [Compound 40], the inhibitory constant (Ki) lay in the range of 10 to 100 nM.

For the compound `COc1ccc2c(c1)C(=O)N(C[C@@]1(c3cc4cc(C(=O)O)cnc4o3)NC(=O)NC1=O)C2` [Compound 39], the Ki is < 10 nM.

On to `COc1ccc2c(c1)C(=O)N(C[C@@]1(c3cc4ncccc4n3C(=O)OC(C)(C)C)NC(=O)NC1=O)C2` [Compound 46], for which the inhibitory constant (Ki) was < 10 nM.

Turning to `COc1ccc2c(c1)C(=O)N(C[C@]1(c3ccc(C#Cc4cccnc4)cc3)NC(=O)NC1=O)C2` [Compound 95], the Ki lay within 10 to 100 nM.

`COc1ccc2c(c1)C(=O)N(C[C@@]1(c3ccc(C#Cc4cccnc4)cc3)NC(=O)NC1=O)C2` [Compound 94]: the Ki was < 10 nM.
